pIC50, pKi: −log10 of the molar value.
Experiments:
Histamine H4 receptor [1] = molecular target: T1, Histamine H4 receptor (Homo sapiens, UniProt Q9H3N8); assay: Displacement of [3H]histamine from human histamine H4 receptor expressed in HEK cells; format: cell-based, HEK293
Histamine H4 receptor [2] = molecular target: Histamine H4 receptor (Rattus norvegicus, UniProt Q91ZY1); assay: Binding affinity to rat histamine H4 receptor
Histamine H1 receptor = Histamine H1 receptor (Homo sapiens, UniProt P35367); assay: Displacement of [3H]mepyramine from human histamine H1 receptor expressed in NIH3T3 cells; format: cell-based
Histamine H4 receptor [3] = molecular target: T1, Histamine H4 receptor; assay: Inverse agonist activity at human histamine H4 receptor expressed in HEK293T cells by CRE-beta-galactosidase assay; format: functional, cell-based, HEK-293T

Sequence of Histamine H4 receptor (Rattus norvegicus, UniProt Q91ZY1) (Q91ZY1 whole entry): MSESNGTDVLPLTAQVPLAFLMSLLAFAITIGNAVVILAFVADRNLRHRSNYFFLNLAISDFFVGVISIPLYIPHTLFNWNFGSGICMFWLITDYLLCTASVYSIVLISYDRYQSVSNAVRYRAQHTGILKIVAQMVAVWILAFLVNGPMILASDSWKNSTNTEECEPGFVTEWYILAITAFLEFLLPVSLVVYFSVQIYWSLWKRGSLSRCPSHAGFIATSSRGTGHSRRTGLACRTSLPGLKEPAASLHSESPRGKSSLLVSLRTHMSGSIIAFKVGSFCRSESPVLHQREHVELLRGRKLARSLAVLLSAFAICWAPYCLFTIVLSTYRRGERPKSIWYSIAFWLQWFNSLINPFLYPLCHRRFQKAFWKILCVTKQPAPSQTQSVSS
Sequence of Histamine H1 receptor (P35367 whole entry): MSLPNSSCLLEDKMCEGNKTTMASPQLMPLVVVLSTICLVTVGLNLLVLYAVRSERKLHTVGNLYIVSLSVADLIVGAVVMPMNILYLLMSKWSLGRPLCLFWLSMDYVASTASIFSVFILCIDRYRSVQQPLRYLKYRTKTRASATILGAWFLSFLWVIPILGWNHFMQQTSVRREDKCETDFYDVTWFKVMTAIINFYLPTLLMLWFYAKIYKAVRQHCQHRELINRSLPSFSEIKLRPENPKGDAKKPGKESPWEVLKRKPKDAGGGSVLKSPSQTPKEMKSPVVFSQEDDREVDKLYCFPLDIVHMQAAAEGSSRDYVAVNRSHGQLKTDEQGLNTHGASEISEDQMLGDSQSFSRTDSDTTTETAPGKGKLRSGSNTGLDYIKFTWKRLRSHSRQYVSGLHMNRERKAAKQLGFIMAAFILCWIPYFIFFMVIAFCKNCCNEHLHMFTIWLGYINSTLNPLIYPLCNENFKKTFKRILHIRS

Compound	pKi (Histamine H4 receptor [1])	further results
CN1CCN(c2nc(NCc3ccccc3)c3ccccc3n2)CC1	5.97	–
CNc1nc(N2CC[C@H](NC)C2)nc2ccc(Cl)cc12	< 6.00	–
CNc1nc(N2CCCC2CN2CCN(C)CC2)nc2ccc(Cl)cc12 (configuration not stated)	< 6.00	–
CN1CCN(c2nc(NCc3cccs3)c3cc(Cl)ccc3n2)CC1	–	pKi (Histamine H4 receptor [2]): 7.80
Cc1noc(CNc2nc(N3CCN(C)CC3)nc3ccc(Cl)cc23)n1	6.43	–
CN1CCN(c2nc(NCc3ccco3)c3ccccc3n2)CC1	6.22	–
CNc1nc(N2CC[C@H](N)C2)nc2ccc(Cl)cc12	< 6.00	–
CNc1nc(N2CCC3(CCN(C)CC3)CC2)nc2ccc(Cl)cc12	< 6.00	–
CNc1nc(N2CCC3(CCN(C)C3)C2)nc2ccc(Cl)cc12 (configuration not stated)	< 6.00	–
CNc1nc(N2CCN3CCC[C@H]3C2)nc2ccc(Cl)cc12	6.81	–
CNc1nc(N2CC3CCCNC3C2)nc2ccc(Cl)cc12 (configuration not stated)	< 6.00	–
CNc1nc(N2CCN(C)CC2C)nc2ccc(Cl)cc12 (configuration not stated)	< 6.00	–
CNc1nc(N2CC(C)N(C)C(C)C2)nc2ccc(Cl)cc12 (configuration not stated)	< 6.00	–
CNc1nc(N2CC[C@@H](N)C2)nc2ccc(Cl)cc12	< 6.00	–
CNc1nc(NCCC2CCN(C)C2)nc2ccc(Cl)cc12 (configuration not stated)	< 6.00	–
CNc1nc(NCC2CCN(C)CC2)nc2ccc(Cl)cc12	< 6.00	–
CN1CCN(c2nc(O)c3cc(Cl)ccc3n2)CC1	4.82	–
CN1CCN(c2nc(Oc3ccccc3)c3ccccc3n2)CC1	5.55	–
CN1CCN(c2nc(OCc3ccccc3)c3ccccc3n2)CC1	5.39	–

Compound	pKi (Histamine H4 receptor [1])	further results
CN1CCN(c2nc(N)c3cc(Cl)ccc3n2)CC1	6.98	–
CN1CCN(c2nc(N)c3ccccc3n2)CC1	5.67	–
CNc1nc(N2CCN(C)CC2)nc2cccc(C)c12	6.16	–
CN1CCN(c2nc(N(C)C)c3cc(Cl)ccc3n2)CC1	6.21	–
CN1CCN(c2nc(NCC3CCCCC3)c3cc(Cl)ccc3n2)CC1	6.23	–
CNc1nc(N2CCN(C)CC2)nc2cc(Cl)ccc12	6.02	–
CN1CCN(c2nc(NCc3ccc(N)cc3)c3cc(Cl)ccc3n2)CC1	6.25	–
COc1ccc(CNc2nc(N3CCN(C)CC3)nc3ccc(Cl)cc23)cc1	6.44	–
CN1CCN(c2nc(NCCO)c3cc(Cl)ccc3n2)CC1	6.24	–
CC(C)Nc1nc(N2CCN(C)CC2)nc2ccc(Cl)cc12	6.12	–
CNc1nc(N2C[C@H]3CNC[C@H]3C2)nc2ccc(Cl)cc12	< 6.00	–
CCOC(=O)CNc1nc(N2CCN(C)CC2)nc2ccc(Cl)cc12	6.02	–
CNc1nc(N2CCCN(C)CC2)nc2ccc(Cl)cc12	< 6.00	–
CNc1nc(NCC2CCN(C)C2)nc2ccc(Cl)cc12 (configuration not stated)	< 6.00	–
CNc1nc(N2CCN3CCCC3C2)nc2ccc(Cl)cc12 (configuration not stated)	6.85	–
CN1CCN(c2nc(Nc3ccccc3)c3ccccc3n2)CC1	5.07	–
CN1CCN(c2nc(NCCc3ccccc3)c3ccccc3n2)CC1	5.83	–
CN1CCN(c2nc3ccc(Cl)cc3nc2OCc2ccccc2)CC1	6.57	–

Continued by rising pKi (Histamine H4 receptor [1]), values first:

pKi (Histamine H4 receptor [1])	Compound	further results
6.57	CN1CCN(c2nc(NCc3cc4ccccc4s3)c3cc(Cl)ccc3n2)CC1	–
6.59	CN1CCN(c2nc(NCc3ccccc3)c3cc(Cl)ccc3n2)CC1	–
6.62	CN1CCN(c2nc(NCCc3ccccc3)c3cc(Cl)ccc3n2)CC1	–
6.65	CN1CCN(c2nc(NCc3ccco3)c3cc(F)ccc3n2)CC1	–
6.73	Cc1cc(Cl)cc2c(NCc3ccco3)nc(N3CCN(C)CC3)nc12	–
6.87	Cc1ccc(CNc2nc(N3CCN(C)CC3)nc3ccc(Cl)cc23)o1	–
6.89	CN1CCN(c2nc(NCc3ccc(C#N)cc3)c3cc(Cl)ccc3n2)CC1	–
6.97	CN1CCN(c2nc(NCc3cncs3)c3cc(Cl)ccc3n2)CC1	–
6.98	CN1CCN(c2nc(NCc3nccs3)c3cc(Cl)ccc3n2)CC1	–
6.98	CN1CCN(c2nc(NCc3ccc(F)cc3)c3cc(Cl)ccc3n2)CC1	–
7.05	CN1CCN(c2nc(NCc3ccco3)c3cc(Cl)ccc3n2)CC1	–
7.15	CNc1nc(N2CCN(C)CC2)nc2ccc(Cl)cc12	–
7.22	CN1CCN(c2nc(NCCc3cccs3)c3cc(Cl)ccc3n2)CC1	–
7.41	Cc1csc(CNc2nc(N3CCN(C)CC3)nc3ccc(Cl)cc23)c1	–
7.45	CN1CCN(c2nc(NCc3ccsc3)c3cc(Cl)ccc3n2)CC1	–
7.47	Cc1ccsc1CNc1nc(N2CCN(C)CC2)nc2ccc(Cl)cc12	–
7.57	CN1CCN(c2nc(NCc3ccoc3)c3cc(Cl)ccc3n2)CC1	pKi (Histamine H1 receptor): 7.01; pIC50 (Histamine H4 receptor [3]): 6.84; pKi (Histamine H4 receptor [2]): 7.61
